The OPERA property sets (Mansouri et al. 2018)
Peptide text beside a SMILES is read from it.

Structure (SMILES) | logP
CCCCCCCCl | 4.15
NC(=O)CCCc1ccncc1 | -0.09
O=C(O)c1ccccc1C(=O)O | 0.73
COc1cc([C@@H]2c3cc4c(cc3[C@H](O)[C@H]3COC(=O)[C@H]23)OCO4)cc(OC)c1OC | 2.01
O=Cc1ccc2cccccc1-2 | 2.64
CC(=O)C1CCC2C3CCC4=CC(=O)CCC4(C)C3C(O)CC12C (stereo not given) | 2.36
Clc1cccnc1Cl | 2.11
COc1ccc(NS(=O)(=O)c2ccc(N)cc2)nn1 | 0.32
O=C(C(F)(F)F)C(F)(F)F | 1.46
CN(C)C(N(C)C)=S(I)c1ccccc1I (stereo not given) | 0.3
ClC(Cl)(Cl)C(Cl)(Cl)Cl | 4.14
CN(C)C(=O)N(C)N=O | 0.36
CCCCCC=O | 1.78
O=C(CN1CCCCC1)Nc1cccc(Br)c1 | 3.62
Nc1nncc2ccccc12 | 0.82
Cc1c(CC(=O)O)sc2ccc(Cl)cc12 | 3.92
c1ccc2c(c1)-c1cccc3cccc-2c13 | 5.16
CC(C)(C)NC(=O)[C@H]1CC[C@H]2[C@@H]3CC[C@H]4NC(=O)C=C[C@]4(C)[C@H]3CC[C@]12C | 3.03
NC(=O)c1ccccc1C(N)=O | -1.73
CCCOP(OCCC)OCCC | 2.26
CN1CCN(CCCN2c3ccccc3Sc3ccc(Cl)cc32)CC1 | 4.88
Nc1ccc(F)c(Cl)c1 | 2.06
COc1cccc(OC)c1C(=O)O | 0.66
OCCCOc1cccc(CN2CCCCC2)c1 | 2.78

Structure (SMILES) | logP
C=CCNCC=C | 1.11
CNc1nc2c3cccnc3ccc2n1C | 1.82
COC(OC)(OC)c1ccccc1 | 2.27
CN(C)CCc1cccnc1 | 0.82
CCCCOc1ccc(C(=O)O)cc1 | 3.57
CCCCOCc1cccc(NC(=O)OCCN2CCCCC2)c1 | 3.73
Nc1nc(N)nc(-c2ccccc2I)n1 | 1.41
CC(=O)Nc1cn[nH]c1 | -0.38
CCCCOc1cccc(O)c1 | 3.03
Cc1ccc(COC(=O)N(C)C)cc1 | 2.63
CCOCC(O)Cn1cnc([N+](=O)[O-])n1 (stereo not given) | -0.07
O=C1CN=C(c2ccccc2C(F)(F)F)c2ccccc2N1 | 2.47
CC(=O)OCc1ccc([N+](=O)[O-])cc1 | 1.73
CC[n+]1cccc2ccccc21.[Br-] | -2.76
CCOP(=S)(OCC)Oc1ccc(Cl)cc1Cl | 5.14
CC(C)NC(=O)c1cccnc1 | 0.59
CN(C)C(N(C)C)=S(I)c1ccc(C(=O)O)cc1 (stereo not given) | -1.28
NNc1ccc([N+](=O)[O-])cc1 | 1.41
COC(=O)c1ccccc1C | 2.75
CCC(C)c1cccc(C(C)CC)c1O (stereo not given) | 4.36
O=C1NC(=O)c2ccccc21 | 1.15
O=C(Cn1cnc([N+](=O)[O-])n1)N1CCOCC1 | -0.96
c1ccc(-c2ncncn2)cc1 | 1.93
OC[C@H]1O[C@@H](Oc2ccccc2)[C@H](O)[C@@H](O)[C@@H]1O | -0.75

Structure (SMILES) | logP
Clc1ccc(C(c2ccc(Cl)cc2)C(Cl)(Cl)Cl)cc1 | 6.91
O=S1(=O)N=CNc2ccccc21 | 0.16
Nc1ccc(Sc2ccc(N)cc2)cc1 | 2.18
CCOC(=O)C(F)(F)C(F)(F)F | 2.12
CN(C)C(=O)OCc1ccc(C(F)(F)F)cc1 | 3.08
O=[N+]([O-])c1cccc(SSc2cccc([N+](=O)[O-])c2)c1 | 4.06
CN(C)N=Nc1ccccc1C(N)=O | 1.73
CON(C)C(=O)Nc1ccc(Br)c(Cl)c1 | 3.09
CC(=O)c1ccc(C(C)C)cc1 | 2.98
Cc1cc(C)c2c(c1)C(c1ccccc1)=NCC(=O)N2 | 2.94
O=[N+]([O-])c1nccn1CC(F)CO (stereo not given) | -0.38
NCCCCNC(=O)c1ccccc1 | 0.58
CNC(=O)Oc1cccc(OC)c1 | 1.3
O=[N+]([O-])c1ccc(Nc2ccccc2)cc1 | 3.74
CC1CC(C)CN(N=O)C1 (stereo not given) | 1.53
N#Cc1ccc(NC=O)cc1 | 1.08
CN1C(CCl)Nc2cc(Cl)c(S(N)(=O)=O)cc2S1(=O)=O (stereo not given) | 1.42
O=C(COc1ccccc1)NNCc1ccccc1 | 2.16
CCOC(=O)NC | 0.34
CCC(C)NC(=O)C(=Cc1ccccc1)SC (stereo not given) | 3.03
CC(C)CC(N)C(=O)OCn1ncc2c(=O)[nH]cnc21 (stereo not given) | 0.19
Nc1c(S(=O)(=O)O)ccc2ccccc12 | -0.97
Cc1ccc(CC(=O)O)cc1 | 1.86
C1=Cc2ccccc2C1 | 2.92

Structure (SMILES) | logP
O=C1C(=O)c2ccccc2-c2ccccc21 | 2.52
NC(=O)c1ccc(C(F)(F)F)cc1 | 1.71
CC(C)CCn1cnc([N+](=O)[O-])n1 | 1.34
COCc1ccc([N+](=O)[O-])o1 | 0.89
C=C1C(=O)OC2C1CCC(C)C1C=CC(=O)C12C (stereo not given) | 1.03
CC(=O)c1cccc(C(=O)O)c1 | 1.56
C=CCOc1ccccc1Cc1cnc(N)nc1N | 2.31
O=C1C=CC(=NO)C=C1 | 1.08
O=C(OCn1ncc2c(=O)[nH]cnc21)c1cccc(CN2CCOCC2)c1 | 1.13
CCCCNC(N)=O | 0.41
COC(=O)c1ccc(S(I)=C(N(C)C)N(C)C)cc1 (stereo not given) | -0.74
CN(C)CCN(C)C | 0.3
COc1cc2c(c(OC)c1OC)-c1ccc(O)c(=O)cc1C(NC(C)=O)CC2 (stereo not given) | 1.2
N#Cc1cccc(CC(=O)O)c1 | 1.18
CC(C)N(N=O)C(C)C | 1.38
O=C(O)Cc1c[nH]c2ccccc12 | 1.41
Nc1ccc(C(=O)Oc2cccc(Br)c2)c(O)c1 | 3.84
Brc1ccsc1Br | 3.53
CC(C)c1cccc(OCC(=O)O)c1 | 2.59
CN(CCO)N=Nc1ccc(C(N)=O)cc1 | 0.26
O=[N+]([O-])c1ccc(C=NO)o1 | 0.3
O=Cc1ccc(Cl)cc1 | 2.1
CC(C)Oc1ccc(CC#N)cc1 | 2.53
COC(=O)c1cccnc1 | 0.83

Structure (SMILES) | logP
O=C1CCCCO1 | -0.35
Cc1ccc([N+](=O)[O-])cn1 | 0.99
C=COCC | 1.04
CC(=O)C(F)(F)F | 0.2
CCOC(=O)C(C#N)=NNc1ccccc1Cl | 3.38
O=S(=O)(CF)Nc1ccccc1 | 1.35
O=C1c2ccccc2Cc2ccccc21 | 3.66
c1ccc(-c2cc3ccccc3[nH]2)nc1 | 3.33
S=C(NN=Cc1ccco1)Nc1ccccc1 | 3.13
COC(=O)C12OCC34C(CC5C(C)=C(O)C(=O)CC5(C)C3C(O)C1O)OC(=O)C(OC(=O)C=C(C)C(C)C)C24 (stereo not given) | 1.66
NS(=O)(=O)c1cc2c(cc1Cl)NC(Cc1ccccc1)NS2(=O)=O (stereo not given) | 0.93
Oc1ccc(O)cc1 | 0.59
CCCCOc1ccc(O)cc1 | 2.9
CCOC(=O)C(=Cc1cccc(OC)c1)C(C)=O | 2.34
NS(=O)(=O)c1ccc2c(c1)S(=O)(=O)NC=N2 | -0.7
Clc1nnnn1-c1ccccc1 | 1.48
CC(C)NNC(=O)COc1ccccc1Cl | 1.82
NC12CC3CC(CC(C3)C1)C2 | 2.44
CCOCCOC(=O)C(C#N)=C(CC)Nc1ccc(N)cc1 | 2.27
CNP(=O)(OC)Oc1ccccc1Cl (stereo not given) | 1.61
NC(=O)CCc1ccccc1 | 0.91
CSc1ccc(SC)nn1 | 1.85
CCCc1ccncc1 | 2.1
Nc1ccc2cc3ccc(N)cc3nc2c1 | 1.83

Structure (SMILES) | logP
O=[N+]([O-])c1cccc(O)c1 | 2
CC1(C)S[C@@H]2[C@H](NC(=O)C(C(=O)O)c3ccccc3)C(=O)N2[C@H]1C(=O)O (stereo not given in full) | 1.13
CNCc1cccnc1 | 0.39
C1=c2ccc3cccc4ccc(c2c43)CC1 | 4.92
CCc1ccccc1CC | 3.72
CNC(=O)Oc1ccc(I)cc1 | 2.46
COc1ccc(I)cc1Cc1cnc(N)nc1N | 2.7
CCN(CC)CCNC(=O)c1cc(I)c(N)cc1OC | 3.09
CNC(=O)ON=C(SC)C(=O)N(C)C | -0.47
Nc1cc(Cl)cc(Cl)c1 | 2.9
O=C(O)CNC(=O)c1ccccc1O | 0.95
Cc1ccc(Cl)cc1Cl | 4.24
CC1=NN(CCOc2ccc3ccccc3c2)C(=O)C1 | 2.74
Cc1ccc2cc3c(ccc4ccccc43)c3c2c1CC3 | 6.42
Nc1nc2nc[nH]c2c(=S)[nH]1 | -0.07
O=C(c1ccccc1)c1cccnc1 | 1.88
Cc1ccc2ccccc2n1 | 2.59
CC(=O)c1ccc(N)cc1 | 0.83
O=C(NC(=O)c1ccccc1O)c1ccccc1O | 1.92
CC(=O)S[C@@H]1CC2=CC(=O)CC[C@]2(C)[C@H]2CC[C@@]3(C)[C@@H](CC[C@@]34CCC(=O)O4)[C@H]12 | 2.78
CC(=O)N[C@@H](Cc1c[nH]c2ccccc12)C(=O)N[C@H](C(N)=O)C(C)C (Ac-Trp-Val-NH2) | 0.73
CCCCC(=O)O | 1.39
N[C@@H](CS)C(=O)O | -2.49
N#Cc1ccc2nc(N)[nH]c2c1 | 1.13

Structure (SMILES) | logP
CC(=O)OC(C)(C)C | 1.76
C=C(C)c1ccccc1 | 3.48
Cc1cccc(N2C(=O)CCC2=O)c1 | 0.57
O=C(O)c1ccc([N+](=O)[O-])cc1 | 1.89
CN(C)C(=O)Oc1ccccc1 | 1.56
CSc1cccc(-c2nc(N)nc(N)n2)c1 | 2.16
OCC(F)(F)F | 0.41
COc1ccc(COC(=O)N(C)C)cc1 | 2.2
Nc1ncnc2c1ncn2C1CC(O)C(CO)O1 (stereo not given) | -0.55
CN(O)C(N)=O | -0.46
CSc1ccc2c(c1)N(CCC1CCCCN1C)c1ccccc1S2 (stereo not given) | 5.9
CC(=O)Oc1ccccc1C#N | 1.33
CCC(=O)OC1(C(C)=O)C(C)CC2C3CCC4=CC(=O)C=CC4(C)C3(F)C(=O)CC21C (stereo not given) | 3.09
Cc1ccc(O)c(-n2nc3ccccc3n2)c1 | 4.31
CCC(CC)C(=O)NC(CO)C(O)c1ccc([N+](=O)[O-])cc1 (stereo not given) | 1.71
COc1ccc2c(c1)C13CCN4CC5=CCOC6CC(=O)N2C1C6C5CC43 (stereo not given) | 1.85
CCNC(=O)c1cccnc1 | 0.31
NCCCc1ccncc1 | 0.4
NCCc1ccccn1 | 0.08
C#CC1(O)CCCCC1 | 1.73
CCCCCCCCCC1(c2ccncc2)CCC(=O)NC1=O (stereo not given) | 4.64
